Numbers after ± are expanded uncertainties.
Conditions: Liquid, Closed cell (Static) method

SMILES | vapor or sublimation pressure (283.15 K) [kPa] | vapor or sublimation pressure (293.15 K) [kPa] | vapor or sublimation pressure (303.15 K) [kPa] | vapor or sublimation pressure (313.15 K) [kPa] | vapor or sublimation pressure (323.15 K) [kPa]
C=C(F)C(F)(F)F [2,3,3,3-tetrafluoro-1-propene] | 437.9 ± 7 | 591.5 ± 7.1 | 782.9 ± 7.1 | 1018.2 ± 7.2 | 1302.4 ± 7.2
CCCC [butane] | 148.1 ± 1 | 207.2 ± 1 | 283.4 ± 1.1 | 378.6 ± 1.1 | 496.5 ± 1.2
